Measured values: PMC10600239, “Selective MCL-1 inhibitor ABBV-467 is efficacious in tumor models but is associated with cardiac troponin increases in patients” (Communications Medicine, 2023)
Values joined by “and” are separate entries in the source; they are usually repeats but may differ in a detail not shown here. Equal entries are not always repeated.

Tested on: AMO-1 xenografts
Assay: AMO-1 xenograft efficacy (tumor volume, body weight)
Type: in vivo, mouse
Design: key to Anti-tumor Activity vs. AMO-1 (DSMZ), Median / Anti-tumor Activity vs. AMO-1 (DSMZ), individual animal / Anti-tumor Activity vs. AMO-1 (DSMZ), Mean: tumor volume in mm^3 (length × width^2/2)
Method: All animal studies were conducted in accordance with the guidelines approved by the Institutional Animal Care and Use Committees of AbbVie. The research protocol was approved by In Vivo Pharmacology at AbbVie prior to study initiation but was not publicly registered or disclosed. Female C.B-17 SCID-beige mice (AMO-1, OPM-2, NCI-H929, and OCI-AML2 xenografts) and female NSG mice (MV4-11-Red.Fluc systemic) were purchased from Charles River Laboratories (Wilmington, MA). Animals were housed in a light cycle-controlled room with HEPA filtration at 22 °C. Animals had nesting and climbing cage topper as the primary environmental enrichment. Animals were inoculated subcutaneously in the right flank with 5 × 10^6 (AMO-1, OPM-2, NCI-H929, and OCI-AML2) or intravenous (IV) with 5 × 10^6 (MV4-11-Red.Fluc). The inoculation volume (0.2 mL) comprised a 50:50 mixture of cells in growth media and Matrigel (BD Biosciences) for subcutaneous injections and 100% phosphate-buffered saline for IV administration. All cell lines used in this publication were authenticated using IDEXX for STR profiling as well as their IMPACT and human IMPACT panels for pathogen screening. Electronic calipers were used to measure the length and width of each tumor 2 to 3 times per week. Tumor volume was estimated by applying the following equation: volume = length × width^2/2. All groups remained blinded during measurements and dosing; only veterinary staff were aware of group identity. When tumors reached approximately 200 mm^3, mice were randomized by match and distributed into treatment and control groups. All xenograft trials were conducted using 5 to 10 mice per group, and all mice were ear tagged and monitored individually throughout the studies. […] Tumor burden in the systemic MV4-11-Red.Fluc experiment was measured using an IVIS® spectrum from PerkinElmer by taking the total photon flux of the entire dorsal side of an individual mouse. […] A background control mouse that was tumor naive but received D-Luciferin was placed in the upper left corner of each image. The total flux from this animal was subtracted from the total flux of each animal present in the image.
For in vivo studies, maximal tumor growth inhibition (TGI) was calculated as the greatest treatment response using the following equation: Maximal TGI = (1 − mean tumor volume of the treated group/mean tumor volume of the vehicle control group) × 100. The tumor growth delay (TGD) percentage was determined as the percentage increase of the median time period for the treatment group to reach an arbitrary tumor volume of 1000 mm^3 relative to the vehicle control group. […] A power analysis was conducted using historical data to determine the number of animals required to yield significance of 0.05 at a 30% difference. […] Data from experiments in vivo were analyzed using the student’s t-test for TGI values and the Mann–Whitney U test for TGD using Excel and GraphPad Prism. Fisher’s exact test was used to probe significance of differences in response frequency.

[1] = 6.25 mg/kg IV QDx1, Day 13 (day before dosing begins)
[2] = 6.25 mg/kg Q7Dx2 IV, SCID-beige female mice, Day 21
[3] = 6.25 mg/kg Q7Dx2 IV, SCID-beige female mice, Day 24

Cc1c(Cl)c2c(Cl)c(C)c1-c1c(-c3ccc(F)cc3)sc3ncnc(c13)O[C@@H](C(=O)O)Cc1cc(ccc1OCc1ccnc(-c3ccc(OC[C@H]4COCCO4)cc3)n1)OC[C@@H](CN1CCN(C)CC1)O2 [Compound A-1747745.0]
Anti-tumor Activity vs. AMO-1 (DSMZ), Median (6.25 mg/kg IV QDx1, day 23): 225.89
Group Mean, Body Weight (6.25 mg/kg IV QDx1, day 23): 22.00 g
Anti-tumor Activity vs. AMO-1 (DSMZ), Mean (6.25 mg/kg IV QDx1, day 26): 454.97
Anti-tumor Activity vs. AMO-1 (DSMZ), Median (6.25 mg/kg IV QDx1, day 26): 392.97
Anti-tumor Activity vs. AMO-1 (DSMZ), Mean (6.25 mg/kg IV QDx1, day 28): 690.68
Anti-tumor Activity vs. AMO-1 (DSMZ), Median (6.25 mg/kg IV QDx1, day 28): 578.26
Group Mean, Body Weight (6.25 mg/kg IV QDx1, day 28): 22.25 g
Anti-tumor Activity vs. AMO-1 (DSMZ), Mean (6.25 mg/kg IV QDx1, day 30): 882.20
Anti-tumor Activity vs. AMO-1 (DSMZ), Median (6.25 mg/kg IV QDx1, day 30): 791.67
Anti-tumor Activity vs. AMO-1 (DSMZ), Mean (6.25 mg/kg IV QDx1, day 34): 1592.98
Anti-tumor Activity vs. AMO-1 (DSMZ), Median (6.25 mg/kg IV QDx1, day 34): 1465.20
Anti-tumor Activity vs. AMO-1 (DSMZ), Mean (6.25 mg/kg IV QDx1, day 36): 1754.60
Anti-tumor Activity vs. AMO-1 (DSMZ), Median (6.25 mg/kg IV QDx1, day 36): 1695.89
Xenograft AMO-1 (DSMZ) tumor volume Day 13, Mean [1]: 216.25 mm³
Xenograft AMO-1 (DSMZ) tumor volume Day 13, Median [1]: 216.39 mm³
% T/C (mean) [1]: 100.07%
% T/C (median) [1]: 100.10%
Xenograft AMO-1 (DSMZ) (mm³) Day 13, individual animals (6.25 mg/kg IV QDx1, SCID-beige female mice, Day 13 (randomization, day before dosing begins)): 219 mm³ and 211 mm³ and 216 mm³ and 221 mm³ and 217 mm³ and 214 mm³ and 224 mm³ and 208 mm³
Mortality Observation Day 32 (6.25 mg/kg Q7Dx2 IV, AMO-1 (DSMZ) xenograft, SCID-beige female mice, per animal): EUTV (6×) and GRPX
% T/C (mean) (6.25 mg/kg Q7Dx2 IV, Day 13): 101.00%
% T/C (median) (6.25 mg/kg Q7Dx2 IV, Day 13): 98.08%
% T/C (mean) (6.25 mg/kg Q7Dx2 IV, Day 19): 30.07%
% T/C (median) (6.25 mg/kg Q7Dx2 IV, Day 19): 31.46%
% T/C (mean) (6.25 mg/kg Q7Dx2 IV, Day 21): 29.54%
% T/C (median) (6.25 mg/kg Q7Dx2 IV, Day 21): 27.04%
% T/C (mean) (6.25 mg/kg Q7Dx2 IV, Day 24): 22.09%
% T/C (median) (6.25 mg/kg Q7Dx2 IV, Day 24): 20.32%
% T/C (mean) (6.25 mg/kg Q7Dx2 IV, Day 26): 21.67%
% T/C (median) (6.25 mg/kg Q7Dx2 IV, Day 26): 14.15%
% T/C (mean) (6.25 mg/kg Q7Dx2 IV, Day 28): 23.23%
% T/C (median) (6.25 mg/kg Q7Dx2 IV, Day 28): 13.94%
Xenograft AMO-1 (DSMZ) Day 19 Mean (6.25 mg/kg Q7Dx2 IV, SCID-beige female mice, Day 19, group mean tumor volume): 118.80 mm³
Xenograft AMO-1 (DSMZ) Day 19 Median (6.25 mg/kg Q7Dx2 IV, SCID-beige female mice, Day 19, group median tumor volume): 115.27 mm³
Xenograft AMO-1 (DSMZ) (mm³) Day 19, individual animals (6.25 mg/kg Q7Dx2 IV, SCID-beige female mice, Day 19, individual tumor volumes): 119 mm³ and 199 mm³ and 123 mm³ and 80 mm³ and 92 mm³ and 115 mm³ and 104 mm³
Xenograft AMO-1 (DSMZ) Day 21, Mean [2]: 190.88 mm³
Xenograft AMO-1 (DSMZ) Day 21, Median [2]: 163.99 mm³
Xenograft AMO-1 (DSMZ) tumor volume Day 21, individual animals [2]: 209 mm³ and 370 mm³ and 179 mm³ and 144 mm³ and 116 mm³ and 164 mm³ and 155 mm³
Xenograft AMO-1 (DSMZ) (mm³) Day 24, individual animals [3]: 184 mm³ and 451 mm³ and 200 mm³ and 190 mm³ and 174 mm³ and 138 mm³ and 133 mm³
Xenograft AMO-1 (DSMZ) tumor volume Day 24, Mean [3]: 210.06 mm³
